Common to all, as to type: cell-based, human
One assay relates to hES cell derived neurons. Description: Fura-2 imaging of calcium flux. The conditions noted are these: of the 53 cells tested; cells responding to GABA, acetylcholine, ATP and elevated potassium; 0.5 mM neurotransmitter, ATP 10 μM. The method, then:
Standard fura-2 imaging of calcium flux was used to investigate the functional properties of the hES cell derived neurons. Neurotransmitters studied included GABA, glutamate (E), glycine (G), elevated potassium (50 mM K^+ instead of 5 mM K^+), ascorbic acid (control), dopamine, acetylcholine (ACh) and norepinephrine. The solutions contained 0.5 mM of the neurotransmitter (except ATP at 10 μM) in rat Ringers (RR) solution: 140 mM NaCl, 3 mM KCl, 1 mM MgCl2, 2 mM CaCl2, 10 mM HEPES buffer, and 10 mM glucose. External solutions were set to pH 7.4 using NaOH. Cells were perfused in the recording chamber at 1.2-1.8 mL/min, and solutions were applied by bath application using a 0.2 mL loop injector located ˜0.2 mL upstream of the bath import. Transient rises in calcium were considered to be a response if the calcium levels rose above 10% of the baseline value within 60 sec of application, and returned to baseline within 1-2 min.
A general note: A change in cytosolic calcium serves as a functional read-out for many receptors and channels.

The subject of assay [1] is embryoid bodies from hES cells. The experiment in a line: Embryoid bodies with or without retinoic acid, then NT-3/BDNF; MAP-2 staining. The conditions noted are these: embryoid bodies maintained in 10 μM RA 4 days; then mitogens, then 10 ng/mL NT-3 and BDNF; without RA ~5%. The method, then:
To generate terminally differentiated neurons, the first stage of differentiation was induced by forming embryoid bodies in FBS medium with or without 10 μM retinoic acid (RA). After 4 days in suspension, embryoid bodies were plated onto fibronectin-coated plates in defined medium supplemented with 10 ng/mL human EGF, 10 ng/mL human bFGF, 1 ng/mL human PDGF-AA, and 1 ng/mL human IGF-1. The embryoid bodies adhered to the plates, and cells began to migrate onto the plastic, forming a monolayer.
The cell populations were further differentiated by replating the cells in a medium containing none of the mitogens, but containing 10 ng/mL Neurotrophin-3 (NT-3) and 10 ng/mL brain-derived neurotrophic factor (BDNF). Neurons with extensive processes were seen after about 7 days. […] GaIC positive cells were identified, but the cells were large and flat rather than having complex processes.

Another assay deals with hES cells of the H7 line. Description: Direct differentiation: noggin, follistatin and retinoic acid (FIG. 6). Particulars: 15 days with Treatment D, cAMP 700 μg; antagonists used for varying time periods. From the text: Noggin is apparently important at about the 1 week point (days 5 to 8), while follistatin is important at around the 2 week point (days 13 to 15), maximizing production of mature neurons rather than small neurites.
Virtually no β-tubulin positive neurons were formed in the absence of noggin or follistatin. […] It is hypothesized that initial noggin/follistatin induction generates a neural progenitor cell, which subsequently can be induced to form neurons by the addition of other factors.
Cells were differentiated according to treatment F as previously (left 2 bars) or omitting retinoic acid (right 2 bars).

For a further assay, the system named is hES cells. The experiment in a line: Effect of neurotrophins on direct differentiation, β-tubulin positive cell count. The conditions noted are these: 7 days of differentiation; BDNF 10 ng/mL, neurotrophin-3 1 ng/mL. The method, then: The effect of several members of the neurotrophin growth factor family was examined. hES cells were differentiated by harvesting with collagenase, dissociating, and reseeding onto poly-ornithine coated cover slips. The cells were plated into DMEM/F12+N2+10% FBS overnight. The following day, the serum was removed from the medium and replaced with 10 ng/mL human bFGF and the growth factor being tested. After 24 hours, bFGF was removed from the medium. These cultures were fed every other day. They were fixed after 7 days of differentiation and immunostained for analysis. The number of neurons was evaluated by counting cells positive for β-tubulin. Cultures maintained in the presence of 10 ng/mL brain derived neurotrophic factor (BDNF) formed approximately 3-fold more neurons than the control cultures. Cultures maintained in neurotrophin-3 (1 ng/mL) formed approximately 2-fold more neurons than control cultures.

For `Nc1ncnc2c1ncn2[C@@H]1O[C@H](COP(=O)(O)OP(=O)(O)OP(=O)(O)O)[C@@H](O)[C@H]1O` [ATP], the “cells that responded (calcium rise)” value in the assay on hES cell derived neurons was 26.
On the same count and under the same terms, the figure for `NCCCC(=O)O` [GABA, γ-amino butyric acid] is 26; for `CC(=O)OCC[N+](C)(C)C` [acetylcholine] it is 26.
In turn, `CC1=C(/C=C/C(C)=C/C=C/C(C)=C/C(=O)O)C(C)(C)CCC1` [retinoic acid] yielded an MAP-2 positive cells in assay [1] of around 26%.

B1: noggin: TGF-β superfamily antagonist (protein, UniProt Q13253 28-232, looked up)
Noggin: QHYLHIRPAPSDNLPLVDLIEHPDPIFDPKEKDLNETLLRSLLGGHYDPGFMATSPPEDRPGGGGGAAGGAEDLAELDQLLRQRPSGAMPSEIKGLEFSEGLAQGKKQRLSKKLRRKLQMWLWSQTFCPVLYAWNDLGSRFWPRYVKVGSCFSKRSCSVPEGMVCKPSKSVHLTVLRWRCQRRGGQRCGWIPIQYPIISECKCSC
Regarding B1, the “contribution to neuron differentiation” value in the assay on hES cells of the H7 line was “contribute to neuron differentiation, and work synergistically”.

B2: follistatin: TGF-β superfamily antagonist (protein, UniProt P19883 30-344, looked up)
Follistatin: GNCWLRQAKNGRCQVLYKTELSKEECCSTGRLSTSWTEEDVNDNTLFKWMIFNGGAPNCIPCKETCENVDCGPGKKCRMNKKNKPRCVCAPDCSNITWKGPVCGLDGKTYRNECALLKARCKEQPELEVQYQGRCKKTCRDVFCPGSSTCVVDQTNNAYCVTCNRICPEPASSEQYLCGNDGVTYSSACHLRKATCLLGRSIGLAYEGKCIKAKSCEDIQCTGGKKCLWDFKVGRGRCSLCDELCPDSKSDEPVCASDNATYASECAMKEAACSSGVLLEVKHSGSCNSISEDTEEEEEDEDQDYSFPISSILEW
Regarding B2, the “contribution to neuron differentiation” value in the assay with hES cells of the H7 line is “contribute to neuron differentiation, and work synergistically”.

B3: BDNF: brain derived neurotrophic factor, member of the neurotrophin growth factor family (protein, UniProt P23560 19-247, looked up)
Neurotrophic factor BDNF …: APMKEANIRGQGGLAYPGVRTHGTLESVNGPKAGSRGLTSLADTFEHVIEELLDEDQKVRPNEENNKDADLYTSRVMLSSQVPLEPPLLFLLEEYKNYLDAANMSMRVRRHSDPARRGELSVCDSISEWVTAADKKTAVDMSGGTVTVLEKVPVSKGQLKQYFYETKCNPMGYTKEGCRGIDKRHWNSQCRTTQSYVRALTMDSKKRIGWRFIRIDTSCVCTLTIKRGR
Regarding B3, the “neurons formed (β-tubulin positive cells) relative to control cultures” value in the assay with hES cells is “approximately 3 fold”.

B4: neurotrophin-3: member of the neurotrophin growth factor family (protein, UniProt P20783 139-257, looked up)
Neurotrophin-3: YAEHKSHRGEYSVCDSESLWVTDKSSAIDIRGHQVTVLGEIKTGNSPVKQYFYETRCKEARPVKNGCRGIDDKHWNSQCKTSQTYVRALTSENNKLVGWRWIRIDTSCVCALSRKIGRT
Turning to B4, the “neurons formed (β-tubulin positive cells) relative to control cultures” value with hES cells is “approximately 2 fold”.
